Assay results reported in patent US20260070945A1, “MACROCYCLIC IMMUNOMODULATORS” (Bristol-Myers Squibb Company, priority 2022, published 2026).
*1 amine or outer side, *2 acyl side, *3 side chain or, on linkers, in order; H or OH if unused. Where a SMILES comes first, the peptide text is derived from it. Bridges are numbered along the chain shown (N, C = ends). [ ]: non-standard residue; d: D form. The star is where a group is joined. ξ: configuration not given here. Phe(3-CF3) = N[C@@H](Cc1cccc(C(F)(F)F)c1)C(=O)O; Phe(4-COOH) = N[C@@H](Cc1ccc(C(=O)O)cc1)C(=O)O; Bip = N[C@@H](Cc1ccc(-c2ccccc2)cc1)C(=O)O; Phe(3-Me) = Cc1cccc(C[C@H](N)C(=O)O)c1; γGlu = O=C(O)[C@H](CCC(=O)[*:2])N[*:1]; NH(CH2)12COOH = O=C(O)CCCCCCCCCCCCN*; X2 = CC(C)=C[C@H](N[*:1])C(=O)[*:2]; Val(3-OH) = CC(C)(O)[C@H](N)C(=O)O; 4Pal = N[C@@H](Cc1ccncc1)C(=O)O; 3Thi = N[C@@H](Cc1ccsc1)C(=O)O; Cha = N[C@@H](CC1CCCCC1)C(=O)O; Cit = NC(=O)NCCC[C@H](N)C(=O)O; Ile(3ξ) = CCC(C)[C@H](N)C(=O)O; Thr(3ξ) = CC(O)[C@H](N)C(=O)O; 12Ado = NCCCCCCCCCCCC(=O)O; Carboxymethyl = O=C(O)C*; NMeA = CN[C@@H](C)C(=O)O; Orn = NCCC[C@H](N)C(=O)O; Aun = NCCCCCCCCCCC(=O)O; Dab = NCC[C@H](N)C(=O)O; Dap = NC[C@H](N)C(=O)O; AEEA = NCCOCCOCC(=O)O; Sar = CNCC(=O)O

The compounds below were run against T1, PD-1/PD-L1 interaction (PE-labeled human PD-L1-Ig binding to Jurkat cell line over-expressing human PD-1) (Homo sapiens, UniProt Q15116) (assay: Jurkat-PD-1 Cell Binding High-Content Screening Assay (CBA)). Details: Jurkat-hPD-1 cells, PE-labeled PD-L1-Ig 20 nM final; read-out: Jurkat HPD1 PDL1 IC50.
T1 construct: expressed in transfected cells; host or cells: Jurkat
T1 sequence (Q15116 25-288): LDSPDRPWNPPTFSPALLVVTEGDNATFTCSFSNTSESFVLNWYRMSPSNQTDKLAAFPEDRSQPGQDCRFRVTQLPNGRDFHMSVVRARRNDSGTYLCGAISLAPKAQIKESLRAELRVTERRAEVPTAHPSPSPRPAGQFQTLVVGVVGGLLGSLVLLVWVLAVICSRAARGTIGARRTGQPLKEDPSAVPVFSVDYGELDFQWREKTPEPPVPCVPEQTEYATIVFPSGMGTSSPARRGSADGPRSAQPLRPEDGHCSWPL
Method in brief: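 Compound is added first to the PD-1-expressing Jurkat cells and held 2 h at 37 °C in serum-containing DMEM. The fluorescent PD-L1 fusion follows at 20 nM final for 1 h. Fixed, Hoechst-stained cells are then imaged for bound label.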

IC50 [nM]	Compound
21.9	CCC(C)[C@@H]1NC(=O)[C@H](Cc2ccc(-c3ccccc3)cc2)NC(=O)[C@H](C(C)C)NC(=O)[C@H](Cc2c[nH]c3ccccc23)NC(=O)[C@H](CC(=O)O)NC(=O)[C@H](Cc2ccncc2)NC(=O)[C@H](Cc2ccc(OCC(=O)O)cc2)NC(=O)CSC[C@@H](C(=O)N[C@@H](CCCCN)C(=O)NCCOCCOCC(=O)NCCCCCCCCCCC(=O)O)NC(=O)[C@H](C(C)O)NC(=O)[C@H](C(C)C)NC(=O)[C@H](CC2CCCCC2)NC(=O)[C@H](CCN)NC(=O)[C@@H](CC(C)C)NC(=O)[C@H](C)N(C)C1=O (stereo partly drawn) [Example 2107] ({CH2CO}-Y(Carboxymethyl)[4Pal]DWV[Bip][Ile(3ξ)][NMeA][dL][Dab][Cha]V[Thr(3ξ)]CK[AEEA][Aun]-OH; thioether N-14)
93	CC(C)C[C@H]1NC(=O)[C@H](C)N(C)C(=O)[C@H](CCC(N)=O)NC(=O)[C@H](Cc2ccc(-c3ccccc3)cc2)NC(=O)[C@H](Cc2ccc(C(=O)O)cc2)NC(=O)[C@H](Cc2cccc(C(F)(F)F)c2)NC(=O)[C@H](CC(=O)O)NC(=O)[C@H](Cc2ccc(OCC(=O)O)cc2)NC(=O)[C@H](Cc2ccc(C(=O)O)cc2)NC(=O)CSC[C@@H](C(=O)N[C@@H](CCN)C(=O)NCCOCCOCC(=O)N[C@@H](CCC(=O)NCCOCCOCC(=O)NCCCCCCCCCCCCC(=O)O)C(=O)O)NC(=O)[C@H](CC(=O)O)NC(=O)[C@H](C(C)(C)O)NC(=O)[C@H](CC2CCCCC2)NC(=O)[C@H](CCN)NC1=O [Example 1182] ({CH2CO}-[Phe(4-COOH)]Y(Carboxymethyl)D[Phe(3-CF3)][Phe(4-COOH)][Bip]Q[NMeA][dL][Dab][Cha][Val(3-OH)]DC[Dab][AEEA][γGlu][AEEA]-{NH(CH2)12COOH}; thioether N-14)
19.9	Cc1cccc(C[C@@H]2NC(=O)[C@H](CC(=O)O)NC(=O)[C@H](Cc3ccc(C(=O)O)cc3)NC(=O)[C@H](Cc3ccc(OCC(=O)O)cc3)NC(=O)CSC[C@@H](C(=O)N[C@@H](CCN)C(=O)NCCCCCCCCCCC(=O)O)NC(=O)[C@H](CCCNC(N)=O)NC(=O)[C@H](C(C)C)NC(=O)[C@H](CC3CCCCC3)NC(=O)[C@H](CCN)NC(=O)[C@@H](CC(C)C)NC(=O)[C@H](C)N(C)C(=O)[C@H](C(C)C)NC(=O)[C@H](Cc3ccc(-c4ccccc4)cc3)NC(=O)[C@H](CC(C)C)NC2=O)c1 [Example 2294] ({CH2CO}-Y(Carboxymethyl)[Phe(4-COOH)]D[Phe(3-Me)]L[Bip]V[NMeA][dL][Dab][Cha]V[Cit]C[Dab][Aun]-OH; thioether N-14)
13.9	CC(=O)NCCCC[C@@H]1NC(=O)[C@H](Cc2ccc(-c3ccccc3)cc2)NC(=O)[C@H](Cc2ccc(O)cc2)NC(=O)[C@H](Cc2cccc(C)c2)NC(=O)[C@H](CC(=O)O)NC(=O)[C@H](Cc2ccc(OCC(=O)O)cc2)NC(=O)[C@H](C(C)O)NC(=O)CSC[C@@H](C(=O)N[C@@H](CCN)C(=O)NCCCCCCCCCCC(=O)O)NC(=O)[C@H](C(C)O)NC(=O)[C@H](C(C)C)NC(=O)[C@H](CC2CCCCC2)NC(=O)[C@H](CCN)NC(=O)[C@@H](CC(C)C)NC(=O)[C@H](C)N(C)C1=O (stereo partly drawn) [Example 2451] ({CH2CO}-[Thr(3ξ)]Y(Carboxymethyl)D[Phe(3-Me)]Y[Bip]K(Ac)[NMeA][dL][Dab][Cha]V[Thr(3ξ)]C[Dab][Aun]-OH; thioether N-14)
10.8	CC[C@H](C)[C@@H]1NC(=O)[C@H](Cc2ccc(-c3ccccc3)cc2)NC(=O)[C@H](CC(C)C)NC(=O)[C@H](Cc2c[nH]c3ccccc23)NC(=O)[C@H](CC(=O)O)NC(=O)[C@H](Cc2ccc(C(=O)O)cc2)NC(=O)[C@H](Cc2ccc(OCC(=O)O)cc2)NC(=O)CSC[C@@H](C(=O)N[C@@H](CCCCN)C(=O)NCCOCCOCC(=O)NCCCCCCCCCCC(=O)O)NC(=O)[C@H](CO)NC(=O)[C@H](C(C)C)NC(=O)[C@H](CC2CCCCC2)NC(=O)[C@H](CCN)NC(=O)[C@@H](CC(C)C)NC(=O)[C@H](C)N(C)C1=O [Example 1079] ({CH2CO}-Y(Carboxymethyl)[Phe(4-COOH)]DWL[Bip]I[NMeA][dL][Dab][Cha]VSCK[AEEA][Aun]-OH; thioether N-14)
26.7	CC(C)=C[C@@H]1NC(=O)[C@H](Cc2cccc(C)c2)NC(=O)[C@H](CC(=O)O)NC(=O)[C@H](Cc2ccc(C(=O)O)cc2)NC(=O)[C@H](CCN)NC(=O)CSC[C@@H](C(=O)N[C@@H](CCN)C(=O)NCCCCCCCCCCC(=O)O)NC(=O)[C@H](CO)NC(=O)[C@H](C(C)(C)O)NC(=O)[C@H](CC2CCCCC2)NC(=O)[C@H](CCN)NC(=O)[C@@H](CC(C)C)NC(=O)[C@H](C)N(C)C(=O)[C@H](Cc2ccc(OCC(=O)O)cc2)NC(=O)[C@H](Cc2ccc(-c3ccccc3)cc2)NC1=O [Example 1303] ({CH2CO}-[Dab][Phe(4-COOH)]D[Phe(3-Me)][X2][Bip]Y(Carboxymethyl)[NMeA][dL][Dab][Cha][Val(3-OH)]SC[Dab][Aun]-OH; thioether N-14)
802	Cc1cccc(C[C@@H]2NC(=O)[C@H](CC(=O)O)NC(=O)[C@H](Cc3ccc(OCC(=O)O)cc3)NC(=O)[C@H](C(C)O)NC(=O)CSC[C@@H](C(=O)N(C)CC(=O)NCCOCCOCC(=O)NCCCCCCCCCCC(=O)O)NC(=O)[C@H](CCC(=O)O)NC(=O)[C@H](C(C)C)NC(=O)[C@H](CC3CCCCC3)NC(=O)[C@H](CCN)NC(=O)[C@@H](CC(C)C)NC(=O)[C@H](C)N(C)C(=O)[C@H](Cc3ccc(O)cc3)NC(=O)[C@H](Cc3ccc(-c4ccccc4)cc3)NC(=O)[C@H](C(C)C)NC2=O)c1 (stereo partly drawn) [Example 2270] ({CH2CO}-[Thr(3ξ)]Y(Carboxymethyl)D[Phe(3-Me)]V[Bip]Y[NMeA][dL][Dab][Cha]VEC[Sar][AEEA][Aun]-OH; thioether N-14)
16.5	Cc1cccc(C[C@@H]2NC(=O)[C@H](CC(=O)O)NC(=O)[C@H](Cc3ccc(OCC(=O)O)cc3)NC(=O)[C@H](CN)NC(=O)CSC[C@@H](C(=O)N[C@@H](CCCN)C(=O)N[C@@H](CO)C(=O)NCCCCCCCCCCCC(=O)O)NC(=O)[C@H](C(C)O)NC(=O)[C@H](C(C)C)NC(=O)[C@H](CC3CCCCC3)NC(=O)[C@H](CCN)NC(=O)[C@@H](CC(C)C)NC(=O)[C@H](C)N(C)C(=O)[C@H](CCCNC(N)=O)NC(=O)[C@H](Cc3ccc(-c4ccccc4)cc3)NC(=O)[C@H](C(C)C)NC2=O)c1 (stereo partly drawn) [Example 2413] ({CH2CO}-[Dap]Y(Carboxymethyl)D[Phe(3-Me)]V[Bip][Cit][NMeA][dL][Dab][Cha]V[Thr(3ξ)]C[Orn]S[12Ado]-OH; thioether N-14)

Same assay, conditions: PE-labeled PD-L1-Ig 20 nM final, Jurkat-hPD-1 cells; read-out: Jurkat HPD1 PDL1 IC50

IC50 [nM]	Compound
12.9	Cc1cccc(C[C@@H]2NC(=O)[C@H](CC(=O)O)NC(=O)[C@H](Cc3ccc(C(=O)O)cc3)NC(=O)[C@H](Cc3ccsc3)NC(=O)CSC[C@@H](C(=O)N[C@@H](CCN)C(=O)NCCOCCOCC(=O)NCCCCCCCCCCC(=O)O)NC(=O)[C@H](CCC(=O)O)NC(=O)[C@H](C(C)(C)O)NC(=O)[C@H](CC3CCCCC3)NC(=O)[C@H](CCN)NC(=O)[C@@H](CC(C)C)NC(=O)[C@H](C)N(C)C(=O)[C@H](Cc3ccc(OCC(=O)O)cc3)NC(=O)[C@H](Cc3ccc(-c4ccccc4)cc3)NC(=O)[C@H](Cc3ccc(OCC(=O)O)cc3)NC2=O)c1 [Example 2505] ({CH2CO}-[3Thi][Phe(4-COOH)]D[Phe(3-Me)]Y(Carboxymethyl)[Bip]Y(Carboxymethyl)[NMeA][dL][Dab][Cha][Val(3-OH)]EC[Dab][AEEA][Aun]-OH; thioether N-14)
13.1	Cc1cccc(C[C@@H]2NC(=O)[C@H](CC(=O)O)NC(=O)[C@H](Cc3ccc(C(=O)O)cc3)NC(=O)[C@H](C(C)O)NC(=O)CSC[C@@H](C(=O)N[C@@H](CCN)C(=O)NCCOCCOCC(=O)NCCCCCCCCCCC(=O)O)NC(=O)[C@H](Cc3cnc[nH]3)NC(=O)[C@H](C(C)(C)O)NC(=O)[C@H](CC3CCCCC3)NC(=O)[C@H](CCN)NC(=O)[C@@H](CC(C)C)NC(=O)[C@H](C)N(C)C(=O)[C@H](Cc3ccc(C(=O)O)cc3)NC(=O)[C@H](Cc3ccc(-c4ccccc4)cc3)NC(=O)[C@H](Cc3ccc(C(=O)O)cc3)NC2=O)c1 (stereo partly drawn) [Example 2545] ({CH2CO}-[Thr(3ξ)][Phe(4-COOH)]D[Phe(3-Me)][Phe(4-COOH)][Bip][Phe(4-COOH)][NMeA][dL][Dab][Cha][Val(3-OH)]HC[Dab][AEEA][Aun]-OH; thioether N-14)
40.6	Cc1cccc(C[C@@H]2NC(=O)[C@H](CC(=O)O)NC(=O)[C@H](Cc3ccc(OCC(=O)O)cc3)NC(=O)[C@H](C(C)O)NC(=O)CSC[C@@H](C(=O)N[C@@H](CCN)C(=O)NCCOCCOCC(=O)NCCCCCCCCCCC(=O)O)NC(=O)[C@H](CCC(=O)O)NC(=O)[C@H](C(C)(C)O)NC(=O)[C@H](CC3CCCCC3)NC(=O)[C@H](CCN)NC(=O)[C@@H](CC(C)C)NC(=O)[C@H](C)N(C)C(=O)[C@H](Cc3ccc(OCC(=O)O)cc3)NC(=O)[C@H](Cc3ccc(-c4ccccc4)cc3)NC(=O)[C@H](Cc3ccc(OCC(=O)O)cc3)NC2=O)c1 (stereo partly drawn) [Example 2508] ({CH2CO}-[Thr(3ξ)]Y(Carboxymethyl)D[Phe(3-Me)]Y(Carboxymethyl)[Bip]Y(Carboxymethyl)[NMeA][dL][Dab][Cha][Val(3-OH)]EC[Dab][AEEA][Aun]-OH; thioether N-14)
13.5	CCC(C)[C@@H]1NC(=O)[C@H](Cc2ccc(-c3ccccc3)cc2)NC(=O)[C@H](C(C)C)NC(=O)[C@H](Cc2c[nH]c3ccccc23)NC(=O)[C@H](CC(=O)O)NC(=O)[C@H](Cc2ccc(OCC(=O)O)cc2)NC(=O)[C@H](Cc2ccc(OCC(=O)O)cc2)NC(=O)CSC[C@@H](C(=O)N[C@@H](CCN)C(=O)NCCOCCOCC(=O)NCCCCCCCCCCC(=O)O)NC(=O)[C@H](CCCNC(N)=O)NC(=O)[C@H](C(C)(C)O)NC(=O)[C@H](CC2CCCCC2)NC(=O)[C@H](Cc2cnc[nH]2)NC(=O)[C@@H](CC(C)C)NC(=O)[C@H](C)N(C)C1=O (stereo partly drawn) [Example 2587] ({CH2CO}-Y(Carboxymethyl)Y(Carboxymethyl)DWV[Bip][Ile(3ξ)][NMeA][dL]H[Cha][Val(3-OH)][Cit]C[Dab][AEEA][Aun]-OH; thioether N-14)
